How the values were obtained:
ESCs [SHEF1] [1] = assay: RT-PCR of Activin/Nodal pathway and differentiation marker genes; assay type: cell-based, human; details: 10 μM with 2 μM 1M
Protocol: (§1) (A) RNA was extracted from ESCs [SHEF1] cultured for 7 days in the presence of 2 μM 1M for the days indicated. RT-PCR analyses were performed using primers selective for the genes indicated. (B) ESCs [SHEF1] were treated with 2 μM 1M alone or in combination with 10 μM SB43125 (S) for the days indicated and RT-PCR performed on the extracted RNA. (C) ESCs [SHEF3] were treated with 1M alone or in combination with 100 ng/ml Activin A (A) for the days indicated and RT-PCR performed. (D). ESCs [SHEF1] were treated with 2 μM 1M, or 100 ng/ml ActivinA (A) alone or in combination with 1M for 5 days. Expression of the endoderm markers FoxA2 and HNF4α was analysed by immunofluorescence. The number of percent positive cells averaged from 3 fields of view +/−SD are indicated. Scale bar represents 50 μm. (E) ESCs [SHEF1] were treated with 2 μM 1M, or 100 ng/ml ActivinA (A) alone or in combination with 1M for 5 days. Expression of the DE marker CXCR4 was alaysed by flow cytometry.
(§2) Total RNA was isolated and purified using TRIzol Reagent (Invitrogen), following the manufacturer's instructions. All RNA samples were treated with DNase I (Ambion) before cDNA synthesis to eliminate any contaminating genomic DNA. RNA (1 μg) was reverse transcribed into cDNA using Oligo(dT)15 (Promega) and SuperScript II (Invitrogen). Gene-specific PCR was carried out using primers and annealing temperatures outlined in Table 2.

Human ESCs [SHEF3] [2] = assay: Differentiation towards definitive endoderm: immunostaining and RT-PCR of endodermal markers; assay type: cell-based; details: 2 μM, feeder-free on Matrigel in mTeSR1, up to 7 days
Protocol: Human ESCs [SHEF3] were maintained feeder-free on Matrigel® in chemically defined mTeSR1® media and treated with 2 μM 1M for the days indicated. (A) Expression of the endodermal markers FoxA2, Sox17 and HNF4α were analysed by immunofluorescence. Treatment with compound 1M led to expression of all markers after 7 days treatment. Scale bar represents 50 μm. (B) ESCs were harvested on day 7 following treatment with 1M for the indicated days. RNA was extracted and RT-PCR analyses performed using primers selective for the genes indicated. […] (C) BIO induces differentiation towards the DE. SHEF3 ESCs were treated with 2 μM BIO for the times indicated and immunostained with antibodies towards the endodermal markers FOXA2, SOX17 and HNF4α. (D) Compound 1L also induces differentiation towards the DE. SHEF1 ESCs were treated with 2 μM 1L for the times indicated and immunostained with antibodies towards the endodermal markers FOXA2 and HNF4α.
ESCs were cultured feeder-free on Matrigel®-coated plates in mTeSR1® media, supplemented with 2 μM compound 1M for 7 days with the media being refreshed every-other day. Definitive endoderm cultures were passaged with collagenase (1 mg/ml) and plated at a ratio of 1:10 on Matrigel® in KO DMEM supplemented with glutamine, penicillin/streptomycin, NEAA, 2% (v/v) KOSR, 10 ng/ml HGF (Peprotech) and 10 ng/ml FGF4 and cultured for a further 7 days with the media being refreshed every-other day. To allow for maturation of the HLCs, 10 ng/ml oncostatin M (Peprotech) and 10^−7 dexamethasone (SIGMA) were added to the above media and the cells were cultured for an additional 7 days with fresh media every-other day.
as §2
ESCs were cultured on Matrigel®-coated lummox (Greiner Bio One) trays and fixed with 4% paraformaldehyde (PFA) for 20 minutes at room temperature. Cells were permeabilised in PBST (with 0.1% Triton X-100) and blocked in 10% blocking reagent (Roche) before incubating with primary antibodies in 2% blocking reagent overnight at 4° C. After washing in PBS, cells were incubated with FITC-conjugated secondary antibodies (Vector Labs) for 3 hours at room temperature. After further washing, the cells were stained with 4,6-diamidino-2-phenylindole (DAPI) (SIGMA), washed again and mounted in MOWIOL. […]

Human ESCs [SHEF3] [3] = assay: Colony morphology, RT-PCR and Western blot of OCT4/NANOG in treated human ESCs; assay type: cell-based
Protocol: (§3) Human ESCs [SHEF3] were treated with the indicated concentrations of BIO or compound 1M or left untreated as a control and cultured for 7 days. (A) Images show typical colonies formed following the indicated treatments. The scale bars represent 1 mm. (B) Histogram plots of ESCs analysed by flow cytometry following immunostaining with antibodies against the pluripotency markers Tra-1-60 or SSEA4. (C) RNA was extracted from the cells and RT-PCR analyses performed using primers specific to the pluripotency genes OCT4 and NANOG and to the house-keeping gene β-ACTIN. (D) Western blot analysis was performed on protein extracted from the cells and immunoblotted with antibodies specific to Oct4. Blots were stripped and reprobed with anti-Gapdh antibodies to assess equal loading. (E) Compound 1O also induces differentiation of human ESCs. SHEF3 cells were treated with the indicated concentration of 1O for 7 days. Images show typical colony morphology. (F) Histogram plots of ESCs analysed by flow cytometry following staining with Tra-1-60 and SSEA4 antibodies. Analysis of percent positive cells and mean fluorescent intensity are indicated on the plots. (G) RT PCR analysis for the expression of OCT4 and NANOG. Bands for each of the genes were from the same gel with intervening samples removed. (H) Western blot analysis of OCT4 protein expression. Proteins bands were from the same immunoblot with intervening samples removed.
(§4) SHEF1 and SHEF3 human ESCs were obtained from the UKSCB and cultured as outlined in their protocols. Briefly, ESCs were maintained on mitomycin C-inactivated mouse embryonic fibroblast (MEF) feeder layers in KnockOut Dulbecco's modified Eagle's medium (KO DMEM) (Invitrogen) supplemented with 20% (vol/vol) KO serum replacement (KOSR; Invitrogen), 1 mM non-essential amino acids (NEAA; Invitrogen), 1 mM glutamine (Invitrogen), 0.1 mM 2-mercaptoethanol (BioRad), penicillin/streptomycin, and 4 ng/ml recombinant human FGF2 (Peprotech). Cultures were passage using 1 mg/ml collagenase at a ratio of 1:8 to 1:12 every 7 days. Cultures were transferred to a feeder-free, chemically defined culture system on ESC-qualified Matrigel® (BD) coated plates in mTeSR1® (Stem Cell Technologies) media according to Stem Cell Technologies' protocol.
as §2
Cell lysates (20 μg) were prepared, separated by SDS-PAGE and transferred to nitrocellulose as described previously (Welham et al., 1994). Immunoblotting was carried out using primary antibodies at the following dilutions: 1:5,000 anti-Oct4 (Santa Cruz Biotechnology; sc-9081); 1:2000 anti-GAPDH (sc-20357); 1:10,000 anti-phospho (Ser33/37/Thr41) β-catenin (Cell signalling Technology; CST 9561); 1:1000 anti-β-catenin (CST 9562). Anti-rabbit antibodies conjugated to horseradish peroxidise (DAKO) were used at 1:10,000 and blots were developed using ECL Advance (GE Healthcare) or ChemiGlow (Alpha Innotech) according to manufacturer's directions. Images were captured and analysed using the ImageQuant RT ECL system (GE Healthcare). Blots were stripped and reprobed as described previously (Welham et al., 1994).

Human ESCs [SHEF3] [4] = assay: Flow cytometry of pluripotency surface markers Tra-1-60 and SSEA4 in treated human ESCs; assay type: cell-based
Protocol: as §3, with “(A)” for “Human ESCs [SHEF3] were treated with the indicated concentrations of BIO or compound 1M or left untreated as a control and cultured for 7 days. (A)”, “(E) Compound 1O also induces differentiation of human ESCs.” left out
as §4
ESCs were trypsinised (0.05% Trypsin-EDTA) for 10 minutes at 37° C. and resuspended in PBS containing 2% (v/v) FBS (FBS/PBS). […] Cells were washed and stained with secondary fluorescein isothiocyanate (FITC)-conjugated antibodies (SIGMA) for a further 30 minutes, if required. Flow cytometry was performed using a FACSCanto cytometer (Becton Dickenson) and the data were analysed with FACSDiva software. Dead cells were excluded for analyses based on forward and side scatter parameters.

ESCs [SHEF1] [5] = assay: Immunofluorescence of endoderm markers FoxA2 and HNF4α, percent positive cells; assay type: cell-based, human; details: 5 days
Protocol: as §1
ESCs were cultured on Matrigel®-coated lummox (Greiner Bio One) trays and fixed with 4% paraformaldehyde (PFA) for 20 minutes at room temperature. Cells were permeabilised in PBST (with 0.1% Triton X-100) and blocked in 10% blocking reagent (Roche) before incubating with primary antibodies in 2% blocking reagent overnight at 4° C. After washing in PBS, cells were incubated with FITC-conjugated secondary antibodies (Vector Labs) for 3 hours at room temperature. After further washing, the cells were stained with 4,6-diamidino-2-phenylindole (DAPI) (SIGMA), washed again and mounted in MOWIOL. The following antibodies and dilutions were used: goat-anti-FoxA2 (1:100, R&D. Systems), mouse anti-Sox17 (1:50, R&D Systems), rabbit anti-HNF4α (1:100, Santa Cruz), rabbit anti-AFP (1:100, DAKO), rabbit anti-TTR (1:100, DAKO). Images were captured on a Zeiss 510 Meta confocal microscope using a 40× objective.

ESCs [SHEF1] [6] = assay: Flow cytometry of the DE marker CXCR4; assay type: cell-based, human; details: 2 μM 1M, 100 ng/ml Activin A, alone or in combination, 5 days
Protocol: as §1
ESCs were trypsinised (0.05% Trypsin-EDTA) for 10 minutes at 37° C. and resuspended in PBS containing 2% (v/v) FBS (FBS/PBS). […] Flow cytometry was performed using a FACSCanto cytometer (Becton Dickenson) and the data were analysed with FACSDiva software. […]

ESCs = assay: RT-PCR of Activin/Nodal pathway and differentiation marker genes; assay type: cell-based, human; details: 100 ng/ml Activin A with 1M, 7 days, SHEF3
Protocol: as §1, §2

[7] = MEF culture, concentration 0.5, 7 days
[8] = MEF culture, concentration 2, 7 days
[9] = mTeSR1, concentration 0.5, 7 days
[10] = mTeSR1, concentration 2, 7 days
[11] = 100 ng/ml Activin A with 2 μM 1M

NC(=O)c1ccc(-c2nc(-c3ccccn3)c(-c3ccc4c(c3)OCO4)[nH]2)cc1 [SB43125, reference compound]
Effect on 1M-induced GSC and FOXA2 expression (ESCs [SHEF1] [1]): dramatically reduced | Inhibition of 1M-induced NODAL expression (ESCs [SHEF1] [1]): only partially inhibited

O=C1NC(=O)C2=C1c1cn(c3ccccc13)CCOCCOCCOCCn1cc2c2ccccc21 [1L]
Differentiation towards the DE (immunostaining FOXA2, SOX17, HNF4α) (Human ESCs [SHEF3] [2]): induced differentiation towards the DE

O=C1NC(=O)C2=C1c1cn(c3ccccc13)CCCCC(O)CCCCn1cc2c2ccccc21 [1O]
OCT4 and NANOG gene expression (RT-PCR) (Human ESCs [SHEF3] [3]; 7 days treatment): loss of OCT4 and NANOG gene expression | Oct4 protein expression (Western blot) (Human ESCs [SHEF3] [3]; 7 days treatment): loss of OCT4 protein expression | Proliferation and differentiation of human ESCs (colony morphology) (Human ESCs [SHEF3] [3]; 7 days, on MEFs in KO DMEM or on Matrigel in mTeSR1, 1M at 2 μM): induced similar differentiation | Expression of pluripotency markers Tra-1-60 and SSEA4 by flow cytometry (in words) (Human ESCs [SHEF3] [4]; 7 days treatment): decreased expression of Tra-1-60 and SSEA4

O=C1Nc2cc(Br)ccc2/C1=C1/Nc2ccccc2/C1=N\O [BIO, reference compound]
Differentiation towards the DE (immunostaining FOXA2, SOX17, HNF4α) (Human ESCs [SHEF3] [2]): induced differentiation towards the DE | Tra1-60 % pos (Human ESCs [SHEF3] [4]; MEF culture, concentration 0.5 (unit not given), 7 days): 82.2% | SSEA4 % pos (Human ESCs [SHEF3] [4]; [7]): 91.3% | SSEA4 mean (mean fluorescence intensity) (Human ESCs [SHEF3] [4]; [7]): 6002 | Tra1-60 mean (mean fluorescence intensity) (Human ESCs [SHEF3] [4]; [7]): 9497 | Tra1-60 % pos (Human ESCs [SHEF3] [4]; MEF culture, concentration 2 (unit not given), 7 days): 75.1% | SSEA4 % pos (Human ESCs [SHEF3] [4]; [8]): 83.3% | SSEA4 mean (mean fluorescence intensity) (Human ESCs [SHEF3] [4]; [8]): 4006 | Tra1-60 mean (mean fluorescence intensity) (Human ESCs [SHEF3] [4]; [8]): 7441 | Tra1-60 % pos (Human ESCs [SHEF3] [4]; mTeSR1 (feeder-free, Matrigel), concentration 0.5, 7 days): 73.7% | Tra1-60 % pos (Human ESCs [SHEF3] [4]; mTeSR1 (feeder-free, Matrigel), concentration 2, 7 days): 40.5% | SSEA4 % pos (Human ESCs [SHEF3] [4]; [9]): 69.2% | SSEA4 mean (mean fluorescence intensity) (Human ESCs [SHEF3] [4]; [9]): 5871 | Tra1-60 mean (mean fluorescence intensity) (Human ESCs [SHEF3] [4]; [9]): 8194 | SSEA4 % pos (Human ESCs [SHEF3] [4]; [10]): 72.5% | SSEA4 mean (mean fluorescence intensity) (Human ESCs [SHEF3] [4]; [10]): 1410 | Tra1-60 mean (mean fluorescence intensity) (Human ESCs [SHEF3] [4]; [10]): 890

B1: Activin A: member of the TGFβ superfamily which binds to the same receptors as Nodal, used to mimic Nodal activity in vitro (protein, UniProt P08476 311-426, looked up)
Inhibin beta A chain: GLECDGKVNICCKKQFFVSFKDIGWNDWIIAPSGYHANYCEGECPSHIAGTSGSSLSFHSTVINHYRMRGHSPFANLKSCCVPTKLRPMSMLYYDDGQNIIKKDIQNMIVEECGCS
modifications: Inhibin beta A chain homodimer
Effect of Activin A on generation of 1M-induced HNF4α expressing cells (ESCs [SHEF1] [5]; [11]): inhibit generation of 1M-induced HNF4α expressing cells | Effect of addition of Activin A on 1M-induced FoxA2 expression (ESCs [SHEF1] [5]; [11]): did not further enhance | FOXA2 expressing cells in the entire population (ESCs [SHEF1] [5]; 2 μM 1M or 100 ng/ml Activin A): 8% | HNF4α-expressing cells (ESCs [SHEF1] [5]; 2 μM 1M or 100 ng/ml Activin A): 3% | CXCR4 expression by flow cytometry (ESCs [SHEF1] [6]): 26.5% | 1M-induced expression of AFP in the presence of Activin A (ESCs): lost

Reference: patent publication US8815590B2, “Composition and method for differentiation of human embryonic stem cells” (Stem Cells for Safer Medicines Limited, priority 2009, dated 2014)
